# Source: patent publication US10053453B2, “Compounds and their use as BACE inhibitors” (AstraZeneca AB, priority 2014, dated 2018)
# Read-outs that look alike come from different tables or passages of the source.
# Columns and labels:
# Human BACE1 = molecular target: T1, Human BACE1 (Homo sapiens, UniProt P56817); experiment: Diluted TR-FRET assay; type: biochemical; conditions: 50 times less enzyme, 6.5 h reaction time at r.t.; read-out: IC50 BACE1 (dil. TR-FRET)
# T1 construct: the soluble part of the human β-Secretase1 (AA1-AA460) was cloned using the BACE1(1-460)-(AVT)-Fc-pGEN-IRES-neo mammalian expression vector; AVT linker (C); made in house
# T1 sequence (P56817 22-460): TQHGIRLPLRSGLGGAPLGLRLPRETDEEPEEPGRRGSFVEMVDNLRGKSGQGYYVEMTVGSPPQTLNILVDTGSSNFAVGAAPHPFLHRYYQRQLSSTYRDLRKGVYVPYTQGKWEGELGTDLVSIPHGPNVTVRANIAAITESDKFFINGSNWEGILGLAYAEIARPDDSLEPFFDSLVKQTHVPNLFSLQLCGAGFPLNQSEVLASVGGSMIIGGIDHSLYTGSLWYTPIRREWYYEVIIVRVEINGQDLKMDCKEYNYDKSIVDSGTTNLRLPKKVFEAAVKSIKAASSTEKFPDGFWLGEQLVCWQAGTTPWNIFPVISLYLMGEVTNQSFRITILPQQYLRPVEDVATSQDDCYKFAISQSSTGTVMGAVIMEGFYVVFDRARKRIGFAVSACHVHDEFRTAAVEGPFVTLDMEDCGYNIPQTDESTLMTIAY
# Summary of the method: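 Human BACE1 (residues 1-460) was fused to an IgG1 Fc affinity tag and stably expressed in HEK 293 cells. Using a Multidrop Combi, 7 μL enzyme was added to 0.8 μL compound in dimethylsulphoxide and incubated 10 minutes. Reactions were stopped with 5.5 μL NaOAC Stop solution (pH 9), and TR-FRET fluorescence was read on a Pherastar HTRF module.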
# SH-SY5Y cells = experiment: sAPPβ release assay
# Human BACE2 = molecular target: T2, Human BACE2 (Homo sapiens, UniProt Q9Y5Z0); experiment: TR-FRET assay; type: biochemical; conditions: substrate 100 nM, pH4.5
# T2 construct: the soluble part of the human β-Secretase2 (AA1-AA473) was cloned using BACE2(1-473)-(AVT)-Fc-pDEST12.2 mammalian expression vector; AVT linker (C); made in house
# T2 sequence (Q9Y5Z0 21-473): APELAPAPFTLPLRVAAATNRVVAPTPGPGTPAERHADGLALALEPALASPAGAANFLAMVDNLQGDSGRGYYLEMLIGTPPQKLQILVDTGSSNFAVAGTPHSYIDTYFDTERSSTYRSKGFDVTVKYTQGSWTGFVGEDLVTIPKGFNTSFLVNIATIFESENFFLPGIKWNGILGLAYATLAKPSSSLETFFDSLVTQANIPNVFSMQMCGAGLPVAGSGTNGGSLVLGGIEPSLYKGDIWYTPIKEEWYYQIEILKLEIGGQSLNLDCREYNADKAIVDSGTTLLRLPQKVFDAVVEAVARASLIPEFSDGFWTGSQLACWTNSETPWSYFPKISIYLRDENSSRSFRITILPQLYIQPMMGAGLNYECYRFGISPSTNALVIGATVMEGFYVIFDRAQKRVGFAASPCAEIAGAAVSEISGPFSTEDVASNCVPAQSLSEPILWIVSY
# [1] = Homo sapiens, SH-SY5Y, read-out: IC50 Cell (sAPPβ release, nM), SH-SY5Y cells, compounds incubated 16-17 h
# [2] = read-out: IC50 Cell (sAPPβ release), SH-SY5Y cells, compounds incubated 16-17 h
Compound,IC50 (Human BACE1) [nM],IC50 (SH-SY5Y cells; [1]) [nM],IC50 (Human BACE2; enzyme 2.7 μg/mL) [nM],IC50 (SH-SY5Y cells; [2]) [nM],IC50 (Human BACE2; enzyme […]) [nM]
"[2H]C1([2H])CC2(N=C(N)O1)c1cc(-c3cc(C#N)cc(OC)c3)ccc1C[C@]21CC[C@@H](OC)CC1 (stereo partly drawn) [Compound 85, 3-((1r,4r)-2″-amino-4-methoxy-5″,6″-dihydro-3′H-dispiro[cyclohexane-1,2′-indene-1′,4″-[1,3]oxazin]-6′-yl-6″,6″-d2)-5-methoxybenzonitrile]",31.8,3.5,62.5,,
"C[C@@H]1CC(C2Cc3ccc(-c4cncnc4)cc3C23COC(N)=N3)C[C@H](C)O1 (stereo partly drawn) [Compound 97, 2-((2R,6S)-2,6-dimethyltetrahydro-2H-pyran-4-yl)-6-(pyrimidin-5-yl)-2,3-dihydro-5′H-spiro[indene-1,4′-oxazol]-2′-amine]",> 5000,1420,> 5000,,
"CO[C@H]1CC[C@]2(CC1)Cc1ccc(C#CC(C)C)cc1C21COC(N)=N1 (stereo partly drawn) [Compound 12, (1r,4r)-4-methoxy-6′-(3-methylbut-1-yn-1-yl)-3′H,5″H-dispiro[cyclohexane-1,2′-indene-1′,4″-oxazol]-2″-amine]",135,5.9,128,,
"[2H]C1([2H])OC(N)=NC12c1cc(/C(C)=N/OCC)ccc1C[C@]21CC[C@@H](OC)CC1 (stereo partly drawn) [Compound 65, (E)-1-((1r,4r)-2″-amino-4-methoxy-3′H,5″H-dispiro[cyclohexane-1,2′-indene-1′,4″-oxazol]-6′-yl-5″,5″-d2)ethan-1-one O-ethyl oxime]",> 5000,> 5000,> 5000,,
"CC#Cc1cncc(-c2ccc3c(c2)C2(COC(N)=N2)C(N2CCOCC2)C3)c1 (stereo not drawn) [Compound 99, 2-morpholino-6-(5-(prop-1-yn-1-yl)pyridin-3-yl)-2,3-dihydro-5′H-spiro[indene-1,4′-oxazol]-2′-amine]",3190,489,519,,
"COCCC1Cc2ccc(-c3cc(C#N)cc(OC)c3)cc2C12COC(N)=N2 (stereo not drawn) [Compound 92, 3-(2′-amino-2-(2-methoxyethyl)-2,3-dihydro-5′H-spiro[indene-1,4′-oxazol]-6-yl)-5-methoxybenzonitrile]",4160,223,437,,
"[2H]C([2H])([2H])O[C@H]1CC[C@@]2(Cc3ccc(-c4cc(Cl)cnc4F)cc3[C@]23N=C(N)OC3([2H])[2H])C[C@@H]1C [Compound 103, {(1S,1′R,3S,4S)-6′-(2-fluoro-5-chloropyridin-3-yl)-4-(methoxy-d3)-3-methyl-3′H,5″H-dispiro[cyclohexane-1,2′-indene-1′,4″-oxazol]-5″,5″-d2-2″-amine}]",22,0.6,55,,
"COCCCC1(C)Cc2ccc(-c3cc(C#N)cc(OC)c3)cc2C12COC(N)=N2 (stereo not drawn) [Compound 88, 3-(2′-amino-2-(3-methoxypropyl)-2-methyl-2,3-dihydro-5′H-spiro[indene-1,4′-oxazol]-6-yl)-5-methoxybenzonitrile]",1950,450,340,,
"[2H]C1([2H])OC(N)=NC12c1cc(C([2H])([2H])C([2H])([2H])C(C)C)ccc1C[C@@]21C[C@@H](C)[C@H](OC)[C@@H](C)C1 (stereo partly drawn) [Compound 40, (1r,3R,4r,5S)-4-methoxy-3,5-dimethyl-6′-(3-methylbutyl-1,1,2,2-d4)-3′H,5″H-dispiro[cyclohexane-1,2′-indene-1′,4″-oxazol]-5″,5″-d2-2″-amine]",32.9,4.4,118,,
"[2H]C1([2H])OC(N)=NC12c1cc(-c3cc(Cl)cc(C#N)c3)ccc1C[C@@]21C[C@@H](C)[C@H](OC)[C@@H](C)C1 (stereo partly drawn) [Compound 39, 3-((1r,3R,4r,5S)-2″-amino-4-methoxy-3,5-dimethyl-3′H,5″H-dispiro[cyclohexane-1,2′-indene-1′,4″-oxazol]-6′-yl-5″,5″-d2)-5-chlorobenzonitrile]",4.7,4.3,50.7,,
"[2H]C1([2H])CC2(N=C(N)O1)c1cc(-c3cncc(C#N)c3)ccc1C[C@]21CC[C@@H](OC)CC1 (stereo partly drawn) [Compound 84, 5-((1r,4r)-2″-amino-4-methoxy-5″,6″-dihydro-3′H-dispiro[cyclohexane-1,2′-indene-1′,4″-[1,3]oxazin]-6′-yl-6″,6″-d2)nicotinonitrile]",88.7,4.8,103,,
"(1′R,4′S)-4′-methoxy-6″-(pyrimidin-5-yl)-3″H,5′″H-trispiro[cyclopropane-1,3′-cyclohexane-1′,2″-indene-1″,4′″-oxazol]-5′″,5′″-d2-2′″-amine and (1′S,4′R)-4′-methoxy-6″-(pyrimidin-5-yl)-3″H,5′″H-trispiro[cyclopropane-1,3′-cyclohexane-1′,2″-indene-1″,4′″-oxazol]-5′″,5′″-d2-2′″-amine [Compound 86]",144,,,5.9,4750

# The next lines start with results.
IC50 (Human BACE1) [nM],IC50 (SH-SY5Y cells; [1]) [nM],IC50 (Human BACE2; enzyme 2.7 μg/mL) [nM],Compound,IC50 (SH-SY5Y cells; [2]) [nM],IC50 (Human BACE2; enzyme […]) [nM]
54.7,0.76,716,"[2H]C1([2H])OC(N)=N[C@]12c1cc(-c3cccnc3)ccc1C[C@@]21CC[C@H](OC)[C@@H](C)C1 [Compound 8, (1S,1′R,3S,4S)-4-methoxy-3-methyl-6′-(pyridin-3-yl)-3′H,5″H-dispiro[cyclohexane-1,2′-indene-1′,4″-oxazol]-5″,5″-d2-2″-amine]",,
341,94.8,> 5000,"[2H]C1([2H])OC(N)=NC12c1cc(-c3cncnc3)ccc1C[C@]21CC[C@@H](O)[C@H](C)C1 (stereo partly drawn) [Compound 57, (1R,3R,4R)-2″-amino-3-methyl-6′-(pyrimidin-5-yl)-3′H,5″H-dispiro[cyclohexane-1,2′-indene-1′,4″-oxazol]-5″,5″-d2-4-ol]",,
2030,14,4820,"[2H]C1([2H])OC(N)=N[C@]12c1cc(-c3ccncc3)ccc1C[C@@]21CC[C@H](OC)[C@@H](C)C1 [Compound 112, {(1S,1′R,3S,4S)-4-methoxy-3-methyl-6′-(pyridin-4-yl)-3′H,5″H-dispiro[cyclohexane-1,2′-indene-1′,4″-oxazol]-5″,5″-d2-2″-amine}]",,
423,17,> 5000,"[2H]C([2H])([2H])O[C@@H]1CC[C@]2(Cc3ccc(-c4cnccn4)cc3[C@]23N=C(N)OC3([2H])[2H])C[C@H]1C [Compound 81, (1R,1′R,3R,4R)-4-(methoxy-d3)-3-methyl-6′-(pyrazin-2-yl)-3′H,5″H-dispiro[cyclohexane-1,2′-indene-1′,4″-oxazol]-5″,5″-d2-2″-amine]",,
18,3.2,18,"[2H]C1([2H])OC(N)=N[C@]12c1cc(-c3cc(C#N)cc(OC)c3)ccc1C[C@]21CC[C@@H](OC)[C@H](C)C1 [Compound 24, 3-((1R,1′R,3R,4R)-2″-amino-4-methoxy-3-methyl-3′H,5″H-dispiro[cyclohexane-1,2′-indene-1′,4″-oxazol]-6′-yl-5″,5″-d2)-5-methoxybenzonitrile]",,
423,17,> 5000,"[2H]C1([2H])OC(N)=N[C@]12c1cc(-c3cnccn3)ccc1C[C@]21CC[C@@H](OC)[C@H](C)C1 [Compound 69, (1R,1′R,3R,4R)-4-methoxy-3-methyl-6′-(pyrazin-2-yl)-3′H,5″H-dispiro[cyclohexane-1,2′-indene-1′,4″-oxazol]-5″,5″-d2-2″-amine]",,
> 5000,,> 5000,"CC1(C2CCOCC2)Cc2ccc(-c3cncnc3)cc2C12COC(N)=N2 (stereo not drawn) [Compound 95, 2-methyl-6-(pyrimidin-5-yl)-2-(tetrahydro-2H-pyran-4-yl)-2,3-dihydro-5′H-spiro[indene-1,4′-oxazol]-2′-amine]",889,
161,1.7,217,"[2H]C1([2H])OC(N)=N[C@]12c1cc(-c3cccnc3)ccc1C[C@]21CC[C@@H](OC)[C@H](C)C1 [Compound 13, (1R,1′R,3R,4R)-4-methoxy-3-methyl-6′-(pyridin-3-yl)-3′H,5″H-dispiro[cyclohexane-1,2′-indene-1′,4″-oxazol]-5″,5″-d2-2″-amine]",,
11.7,0.45,22.7,"[2H]C1([2H])OC(N)=N[C@]12c1cc(-c3cncc(Cl)c3)ccc1C[C@]21CC[C@@H](OC)[C@H](C)C1 [Compound 7, (1R,1′R,3R,4R)-6′-(5-chloropyridin-3-yl)-4-methoxy-3-methyl-3′H,5″H-dispiro[cyclohexane-1,2′-indene-1′,4″-oxazol]-5″,5″-d2-2″-amine]",,
